Here are results for eight compounds from ChEMBL document CHEMBL1201862, “PubChem BioAssay data set” (2004).

Among the test systems are UACC-257; Malme-3M; MDA-MB-435; IGROV-1; SK-MEL-2; HL-60; COLO 205; NCI-H23; 786-0; MOLT-4; LOX IMVI; PC-3; M14; SNB-19; MCF7; NCI-H460; TK-10; SF-539; SN12C.
Common to all, as to assay: growth of human tumour cells (NCI), 48 h

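Following 48 hours of exposure in 96-well plates, responses at five concentrations were used to interpolate endpoints linearly. GI50 = concentration required for 50% inhibition of growth.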 Calls of active or inactive are those of the source. Cut-off read from the data, not from the text of the source: active = GI50 up to about 1.1 µM and inactive = higher.

As for `FC1C2=C(SC1(F)F)C1CCC2C1` (centres undefined), the GI50 with UACC-257, in the test on Malme-3M, in the test on MDA-MB-435, in the test with IGROV-1, in the test on SK-MEL-2 and with HL-60 was > 100 µM (inactive) in each case. Moreover, the GI50 in the test on COLO 205, with NCI-H23, in the test with 786-0, in the test on MOLT-4, in the test with LOX IMVI and in the test with PC-3 was > 100 µM (inactive) throughout. Besides, the GI50 in the test on M14, in the test with SNB-19, in the test with MCF7, with NCI-H460 and in the test on TK-10 was > 100 µM (inactive) throughout.
Regarding `COC1(C)C(=O)N2C1N(C(=O)OC(C)(C)C)CC2(C)C` (centres undefined), the GI50 in the test on UACC-257, with Malme-3M, in the test with IGROV-1, with SF-539, in the test with SK-MEL-2 and in the test on HL-60 was > 100 µM (inactive) in each case. Also, the GI50 in the test with COLO 205 is 36.5 µM (inactive); in the test on NCI-H23, > 100 µM (inactive); in the test on 786-0 it was > 100 µM (inactive); in the test on MOLT-4 it was > 100 µM (inactive); with LOX IMVI, 23.5 µM (inactive); in the test with M14, > 100 µM (inactive). The GI50 is > 100 µM (inactive) in the test with SNB-19, > 100 µM (inactive) in the test with SN12C, 81.3 µM (inactive) with NCI-H460 and > 100 µM (inactive) with TK-10.
Turning to `CC(C)(C)NNC(=O)/C(=C/c1ccc([N+](=O)[O-])cc1)NC(=O)c1ccccc1`, the GI50 with UACC-257 is > 100 µM (inactive); in the test with Malme-3M, > 100 µM (inactive); in the test with IGROV-1, > 100 µM (inactive); in the test on SF-539, > 100 µM (inactive); with SK-MEL-2 it was > 100 µM (inactive); in the test with HL-60, 44.8 µM (inactive). In addition, the GI50 was 29 µM (inactive) in the test on COLO 205; > 100 µM (inactive) with NCI-H23; 48.5 µM (inactive) in the test with 786-0; 41.3 µM (inactive) in the test on MOLT-4; 17.2 µM (inactive) in the test with LOX IMVI; > 100 µM (inactive) in the test with M14. Besides, the GI50 with SNB-19 is > 100 µM (inactive); in the test on SN12C, > 100 µM (inactive); in the test with NCI-H460 it was 60.1 µM (inactive); with TK-10, > 100 µM (inactive).
Take `CC(C)OC1=C(CC2(C)OCCO2)C(=O)C12OCCO2`: the GI50 in the test with UACC-257, in the test with MDA-MB-435, in the test with IGROV-1, in the test with SF-539, in the test with SK-MEL-2 and in the test on HL-60 was > 100 µM (inactive) throughout. Moreover, the GI50 is > 100 µM (inactive) in the test on COLO 205; 42 µM (inactive) in the test on NCI-H23; > 100 µM (inactive) in the test with 786-0; > 100 µM (inactive) in the test with MOLT-4; > 100 µM (inactive) with LOX IMVI; > 100 µM (inactive) in the test with PC-3. The GI50 in the test with M14, in the test on SNB-19, in the test on SN12C, with MCF7, in the test on NCI-H460 and in the test with TK-10 was > 100 µM (inactive) throughout.
Consider `CCCC(O)c1cn(-c2cccc(S(=O)(=O)O)c2)nn1` (centres undefined), for which the GI50 in the test with UACC-257, with Malme-3M, with IGROV-1, in the test with SF-539, in the test on SK-MEL-2 and with HL-60 was > 100 µM (inactive) in each case. Moreover, the GI50 in the test on COLO 205, in the test on NCI-H23, in the test with 786-0, in the test with MOLT-4, in the test with LOX IMVI and with M14 was > 100 µM (inactive) throughout. In addition, the GI50 in the test on SNB-19, in the test with SN12C, in the test on NCI-H460 and with TK-10 was > 100 µM (inactive) in each case.
For the compound `CS(=O)(=O)OCCN(CCOS(C)(=O)=O)c1ccc(/C=N/c2cccc(Cl)c2)cc1`, the GI50 in the test on UACC-257 is 2.84 µM (inactive); with Malme-3M it was 12.4 µM (inactive); in the test on MDA-MB-435, 12.2 µM (inactive); in the test on IGROV-1 it was 15.5 µM (inactive); with SF-539, 3.68 µM (inactive); with SK-MEL-2 it was 23.8 µM (inactive). The GI50 with HL-60 is 2.45 µM (inactive); in the test on COLO 205 it was 0.811 µM (active); in the test on NCI-H23, 1.66 µM (inactive); in the test with 786-0, 0.813 µM (active); with MOLT-4, 0.286 µM (active); in the test with LOX IMVI, 1.13 µM (inactive). For the same compound, the GI50 with PC-3 is 24.5 µM (inactive); in the test on M14, 14.5 µM (inactive); in the test with SNB-19 it was 5.46 µM (inactive); in the test with SN12C it was 1.4 µM (inactive); in the test with MCF7 it was 10 µM (inactive); with NCI-H460 it was 0.269 µM (active). Further, the GI50 with TK-10 is 2.19 µM (inactive).
Turning to `O=C1CSC(/C(=C/c2ccccc2)c2nc3ccccc3[nH]2)=N1`, the GI50 with UACC-257 is > 100 µM (inactive); in the test on Malme-3M, 60.5 µM (inactive); with IGROV-1, 44.9 µM (inactive); in the test with SF-539 it was 23.6 µM (inactive); in the test on SK-MEL-2 it was 58.2 µM (inactive); in the test on HL-60, 71.9 µM (inactive). For the same compound, the GI50 was > 100 µM (inactive) with COLO 205; 28.1 µM (inactive) in the test with NCI-H23; 65.2 µM (inactive) in the test on 786-0; > 100 µM (inactive) in the test on MOLT-4; > 100 µM (inactive) in the test on LOX IMVI; 57 µM (inactive) with M14. Moreover, the GI50 was 25.9 µM (inactive) with SNB-19, 75.3 µM (inactive) in the test on SN12C, > 100 µM (inactive) with NCI-H460 and > 100 µM (inactive) in the test with TK-10.
In the case of `CCc1cccc(CC)c1NC(=O)C1=C(C)NC(C)=C(C(=O)Nc2c(CC)cccc2CC)C1c1ccc2c(c1)OCO2`, the GI50 was 17.9 µM (inactive) with UACC-257; 14.9 µM (inactive) with Malme-3M; 18.8 µM (inactive) in the test with IGROV-1; 22.5 µM (inactive) in the test on SF-539; 18.6 µM (inactive) with SK-MEL-2; 8 µM (inactive) in the test on HL-60. Besides, the GI50 was 13.4 µM (inactive) with COLO 205; 17.6 µM (inactive) with NCI-H23; 16.4 µM (inactive) with 786-0; 56.8 µM (inactive) with MOLT-4; 12.7 µM (inactive) in the test with LOX IMVI; 16.8 µM (inactive) with M14. Further, the GI50 in the test on SNB-19 is 17.4 µM (inactive); in the test with SN12C, 15.3 µM (inactive); with NCI-H460 it was 14 µM (inactive); in the test with TK-10, 33.6 µM (inactive).
